# System: HepG2
# Test: Induction of apoptosis in human HepG2 cells assessed as early apoptotic cells at 0.4 uM measured after 48 hrs by Annexin V-FITC/propidium iodide staining based flow cytometry (reference value: 1.81%)
# Assay type: functional
smiles,measurement,value
C[C@H]1CCC/C=C/[C@@H]2C[C@H](O)C[C@H]2[C@H](OC(=O)/C=C/c2ccc(N(C)C)cc2)/C=C/C(=O)O1,Activity,1.45%
